Experimental data as given in PubChem BioAssay (NCI).
Values joined by “and” are separate entries in the source; they are usually repeats but may differ in a detail not shown here. Identical values can stand only once.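 Each compound was tested at five concentrations against cells in 96-well plates for 48 hours. Here, GI50 denotes the concentration required for 50% inhibition of growth. TGI marks complete inhibition of growth.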

Experiments:
Assay in all cases: DTP human tumour cell line panel, 48 h
SNB-75 CNS = test system: SNB-75 CNS
EKVX NSCLC = test system: EKVX NSCLC
A549 NSCLC = test system: A549 NSCLC
OVCAR-3 ovarian = test system: OVCAR-3 ovarian
MCF7 breast = test system: MCF7 breast
SNB-19 CNS = test system: SNB-19 CNS
HCT-116 colon = test system: HCT-116 colon
A498 renal = test system: A498 renal

Compound	TGI (SNB-75 CNS) [µM]	TGI (EKVX NSCLC) [µM]	TGI (A549 NSCLC) [µM]	TGI (OVCAR-3 ovarian) [µM]	TGI (MCF7 breast) [µM]	TGI (SNB-19 CNS) [µM]	TGI (HCT-116 colon) [µM]	GI50 (SNB-75 CNS)	GI50 (EKVX NSCLC) [µM]	GI50 (A498 renal)	TGI (A498 renal)	GI50 (A549 NSCLC)	GI50 (OVCAR-3 ovarian) [µM]	GI50 (SNB-19 CNS)	GI50 (HCT-116 colon)	GI50 (MCF7 breast)
COc1ccc(-c2cc(=O)c3c(O)cc(C)cc3o2)cc1OC	> 100	> 100	> 100	> 100	> 100	> 100	> 100	–	–	–	–	–	–	–	–	–
O=C(OCc1ccc2c(Cl)cc(Cl)c(O)c2n1)c1cc2ccccc2[nH]1	1.97	3	4.01	0.398	–	2.99	0.372	0.583 µM	1.49	1.63 µM	3 µM	1.75 µM	0.198	1.59 µM	0.174 µM	–
CCc1nc(Cl)nc(Cl)c1Cl	18.3	38.7	9.56	2.08	5.56	11.3	4.62	–	–	–	25.6 µM	–	–	–	–	–
CCCSC1=NC2C(N(CC)C(=O)N2CC)N1/N=C/C=C/c1ccccc1[N+](=O)[O-] (stereo not drawn)	54.7	> 100	> 100	14.9	> 100	> 100	> 100	2.26 µM	3.89	1.59 µM	6.35 µM	4.25 µM	3.11	3.74 µM	3.2 µM	2.81 µM
COc1ccc(-c2ccc(/C=N/n3c(C)nn(CN4CCN(C)CC4)c3=S)o2)c([N+](=O)[O-])c1	–	> 100	> 100	38.1	> 100	> 100	57.8	–	> 100	–	–	60.8 µM	16.2	58.3 µM	21.7 µM	30.4 µM
C#Cc1cccc(Nc2nc3ccc([N+](=O)[O-])cc3nc2Nc2cccc(C#C)c2)c1	0.653	0.987	1.12	0.67	1.07	1.84	0.715	0.175 µM	0.249	0.227 µM	0.783 µM	0.212 µM	0.193	0.361 µM	0.214 µM	0.266 µM
COc1cccc2[nH]c(-c3ccccn3)nc12	> 100	> 100	> 100	> 100	> 100	> 100	> 100	–	–	–	> 100 µM	–	–	–	–	–
COc1cc2nc3cc([N+](=O)[O-])ccc3c(NCCCNCC(C)(C)O)c2cc1OC	1.61	3.97	1.17	1.03	1.16	1.41	1.04	0.3 µM	1.21	0.216 µM	1.33 µM	0.32 µM	0.33	0.303 µM	0.299 µM	0.208 µM
COc1ccc(-c2c(-c3cc(OC)c4c(c3)OCO4)noc2N)cc1	58.5	> 71.3	> 100	0.0483	28.5	> 100	19.5	0.0339 µM	1.74	0.0268 µM	0.342 µM	0.0663 µM	0.0203	0.0708 µM	0.0438 µM	0.028 µM
NC(=O)/C=C/NC(=O)/C=N\O	> 100	> 100	–	> 100	> 100	> 100	> 100	–	–	–	> 100 µM	–	–	–	–	–
CC1=C[S+](c2ccccc2)c2cccc3cc4ccccc4c1c23 (stereo not drawn)	1.55	4.99	3.59	1.44	–	1.5	–	0.452 µM	0.333	1.08 µM	5.39 µM	0.309 µM	0.323	0.35 µM	0.0655 µM	–
Cc1nc(N)sc1C(=O)Nc1cc(C(=O)NCCCN(C)C)n(C)c1	> 100	> 100	> 100	> 100	> 100	> 100	> 100	> 100 µM	> 100	> 100 µM	> 100 µM	> 100 µM	> 100	> 100 µM	> 100 µM	> 100 µM
COc1ccccc1S(=O)(=O)Nc1ccc2c(c1)CN(C)C(=O)N2	–	> 100	> 100	> 100	> 100	> 100	> 100	0.266 µM and 0.481 µM	20.3	1.5 µM and 2.25 µM	22.6 µM and 10.9 µM	9.07 µM and 22.2 µM	4.71	7.3 µM and 5.07 µM	4.6 µM and 4.38 µM	1.87 µM and 1.48 µM
O=C(CCCCCCSc1nc(-c2ccc(Cl)cc2)cc(-c2ccc(Cl)cc2)n1)NO	15.6	39.6	5.1	4.91	> 50	20.4	6.05	1.32 µM	2.6	1.03 µM	4.05 µM	1.42 µM	1.38	1.97 µM	1.45 µM	1.44 µM
COc1ccc(-c2csc(-c3cc(Cl)cc(Cl)c3Cl)n2)cc1	> 100	> 100	> 100	> 100	> 100	> 100	> 100	40 µM	59.9	> 100 µM	> 100 µM	68.3 µM	86.8	50.3 µM	> 100 µM	5.91 µM
C=C(C)[C@@H]1CC[C@]2(COC3CCCCO3)CC[C@]3(C)[C@H](CC[C@@H]4[C@@]5(C)C=C(C=O)C(=O)C(C)(C)[C@@H]5CC[C@]43C)[C@@H]12 (stereo partly drawn)	–	3.32	3.15	2.49	3.43	2.89	2.59	–	1.62	0.368 µM	1.98 µM	1.56 µM	1.14	1.35 µM	1.31 µM	1.52 µM
N#Cc1ccc(C(c2ccc(C#N)cc2)n2cncn2)cc1	> 5000	> 5000	> 5000	> 5000	> 5000	> 5000	–	> 5000 µM	> 5000	–	> 5000 µM	> 5000 µM	> 5000	> 5000 µM	–	> 5000 µM
CNCCCNc1nc2ccccc2c2c(=O)c3cc(Cl)ccc3sc12	2.61	–	3.04	3.08	–	–	–	1.31 µM	–	2.55 µM	7.41 µM	1.55 µM	1.61	–	–	–
CCCCC#CC#Cc1cccc(=O)o1	–	> 100	> 100	69.6	> 100	27.7	28.3	–	49	–	–	39.2 µM	23.9	12.6 µM	14.8 µM	26.1 µM
CC(=O)[O][Hg][c]1ccccc1	2.2	3.98	–	0.295	0.684	3.05	0.667	0.771 µM	1.46	1.11 µM	2.37 µM	–	0.147	1.46 µM	0.264 µM	0.197 µM
COc1ccc(C(=O)c2cc3c(N)c(C(=O)Nc4cccc(Cl)c4C)sc3nc2C)cc1	–	> 25	> 25	> 25	> 25	> 25	> 25	–	0.134	0.0691 µM	0.558 µM	0.136 µM	0.0872	0.117 µM	0.0989 µM	0.0932 µM
Cc1cc(C)c(S(=O)(=O)ONC(=O)OC(C)(C)C)c(C)c1	> 100	> 100	> 100	> 100	–	> 100	> 100	–	–	–	> 100 µM	–	–	–	–	–
N[C@@H]1CCCN(c2c(/C=C3\SC(=O)NC3=O)cccc2-c2ccccc2)C1	17.5	–	31.8	29.4	27.1	13.2	26.9	3.31 µM	–	1.5 µM	18.8 µM	13.6 µM	15.3	2.93 µM	13.1 µM	11.4 µM
CC(=O)OCC1O[C@@H]([S-])C(OC(C)=O)[C@H](OC(C)=O)[C@@H]1OC(C)=O.[Au+].c1ccc(CN2[CH-]N(Cc3ccccc3)C(c3ccccc3)=C2c2ccccc2)cc1	2.68	–	21.4	2.99	–	–	3.24	1.37 µM	–	2.06 µM	4.02 µM	3.81 µM	1.61	–	1.64 µM	–
COc1ccc2c(c1)CCC1=CC3(CCC12C)SCCS3 (stereo not drawn)	> 10	–	> 10	7.71	> 10	> 10	–	–	–	–	–	–	–	–	–	–
C/C(Cc1ccc(Cl)cc1)=C(/c1ccc(Cl)cc1)c1ccc(OCCN(C)C)cc1	7.93	9.22	10.3	9.2	6.31	9.62	8.74	3.47 µM	4.75	–	–	4.52 µM	4.53	5.04 µM	3.03 µM	1.7 µM
O=C1C(Cl)=C(Nc2cccc(O)c2)C(=O)N1c1ccccc1Cl	–	> 100	> 100	48.5	> 100	> 100	70.9	–	76.1	–	–	50 µM	21.5	40.6 µM	20 µM	29.8 µM
